The source of these data is US10772326B2 (priority 2014, dated 2020).

Read-outs that look alike come from different tables or passages of the source.

Data set [1] relates to E. coli Stratagene strain “Solopack”. Nature of the data set: Disc test of essential oils on E. coli growth on LB agar. The class given is cell-based. The note with it: 20 μl undiluted on 6 mm disc, 24 hrs. As for the experimental part:
The essential oils cinnamadehyde (Aldrich, W228605; ≥98% purity), carvacrol (Aldrich, W224502; ≥98% purity) and geraniol (Aldrich, 163333; 98% purity) were purchased Sigma-Aldrich (St. Louis, Mo.). A single colony of E. coli Stratagene strain “Solopack” was inoculated in 5 ml of Luria Broth (LB) liquid medium with shaking at 37° C. overnight. Two hundred μl of the E. coli overnight cultures were placed on an LB agar plate, and spread evenly with glass beads. The bacterial culture was allowed to absorb into the LB medium. Within 30 min after absorption, 20 μl drops of the three essential oils (cinnamaldehyde, carvacrol or geraniol) were separately placed without dilution on 6 mm discs (Whatman, Cat No. 2017-006; GE healthcare Life Science) and the treated disks were placed on top of the plates with E. coli. The plates were then incubated for 24 hrs. […] Experiments were repeated, with the same results.

Data set [2] relates to L. crescens strain BT-1 (Lcr). The class given is cell-based, Liberibacter crescens. The note with it: 5 days; for inhibition of the growth of Lcr: 20 μl on 6 mm disc.
Data set [3] relates to Las. Conditions: spray to run-off.
In the next data set the test system is Swingle rootstocks. In words: Phytotoxicity of soil drench on potted citrus. The data set is classed as in vivo. The note with it: drench to run-off. The text has this:
To further test the phytoxicity of cinnamaldehyde or carvacrol in 70% ethanol, and 70% ethanol alone on citrus plants, we applied 1% and 10% cinnamaldehyde or carvacrol (each dissolved in 70% ethanol) on Swingle rootstocks (˜6 inches to 1 foot tall) by adding sufficient liquid to soil of potted citrus to the point of run-off of the drench. We also applied 70% ethanol as control in these two methods.

For data set [4], the system named is Swingle rootstocks and sweet orange. In words: Phytotoxicity of foliar spray or leaf painting on citrus. The data set is classed as in vivo. Conditions: spray to run-off or leaf painting. The text has this: To test the phytoxicity of cinnamaldehyde or carvacrol in 70% ethanol, and 70% ethanol alone on citrus plants, we applied 1% (w/v) and 10% (w/v) cinnamaldehyde or carvacrol (each dissolved in 70% ethanol) on Swingle rootstocks (˜6 inches to 1 foot tall) by spraying to the point of run-off of the spray and also sweet orange (˜3 foot tall) by painting one or both sides of a portion of the leaf surface. We also applied 70% ethanol as control in these two methods.

In data set [5] the test system is Las. The data set is classed as in vivo, Candidatus Liberibacter asiaticus. Conditions: 1% (w/v) in 70% ethanol, foliar spray to run-off; 1-2 weeks later and for several months; positive = Ct ≤ 35.
Data set [6] deals with Las. The note with it: 1.5% (w/v) in 100% DMSO.
Setting [7] is: 1% in 70% ethanol (carvacrol: 8 mg/ml (1%)).

Consider `CC(C)=CCC/C(C)=C/CO` [geraniol, reference compound], for which the “inhibition of the growth of E. coli” value in data set [1] is listed as “inhibitory”. The “inhibition of the growth of Lcr” value in data set [2] (2 mg/ml to 0.125 mg/ml in 70% ethanol) is recorded as “not inhibitory”.

With `O=C/C=C/c1ccccc1` [cinnamaldehyde], the “inhibition of the growth of E. coli” value in data set [1] is reported as “inhibitory”. For the same compound, in data set [1], the “relative inhibition of the growth of E. coli (ranking)” value is given as “more inhibitory than geraniol”. Besides, the “PCR tests for presence of Las” value in the data set with Las [3] (0.3% in 50% DMSO) is given as “remained infected”. The “effect on the trees (defoliation)” value is given as “appeared unaffected” in the data set on Las [3] (0.3% in 50% DMSO); “completely defoliated” with Las [3] (1.5% in 50% DMSO, 6-7 days later); “completely defoliated” with Las [6] (2 x 20 ml trunk injection, 6-7 days later). Besides, the “weekly qPCR tests for Las for the next nine months” value in the data set on Las [3] (1.5% in 50% DMSO) was “remained completely negative”. Also, the “PCR tests for presence of Las in new shoots” value with Las [3] (1.5% in 50% DMSO, about 3 weeks after defoliation) is “completely Las negative”; in the data set with Las [6] (trunk injection), “completely negative”. Besides, the “phytotoxicity, soil drench” value in the data set on Swingle rootstocks (setting [7]) is “not at all phytotoxic”; in the data set on Swingle rootstocks (10% w/v in 70% ethanol) it was “moderately phytotoxic”. The “phytotoxicity, foliar” value was “not at all phytotoxic” in data set [4] (1% (w/v) in 70% ethanol) and “moderately phytotoxic” in data set [4] (10% w/v in 70% ethanol). The “Las qPCR tests after treatment” value in the data set with Las [5] is recorded as “qPCR positive”. In addition, in data set [2] (2 mg/ml in 70% ethanol), the “inhibition of the growth of Lcr” value is given as “surprisingly strong inhibition”. Also, in data set [2] (two-fold serial dilutions in 70% ethanol, disc test), the “level down to which inhibitory to Lcr” value came to 1 mg/mL. In the data set on Las [6] (trunk injection), the “weekly PCR tests for Las for the next 9 months” value is given as “remained completely PCR negative”.

Consider `Cc1ccc(C(C)C)cc1O` [carvacrol, reference compound], for which, in data set [1], the “inhibition of the growth of E. coli” value is given as “inhibitory” and the “relative inhibition of the growth of E. coli (ranking)” value was “more inhibitory than cinnamaldehyde”. The “phytotoxicity, soil drench” value in the data set on Swingle rootstocks (setting [7]) is “highly phytotoxic”. Moreover, in data set [4] (1% (w/v) in 70% ethanol), the “phytotoxicity, foliar” value was “highly phytotoxic”. For the same compound, in data set [2] (2 mg/ml in 70% ethanol), the “inhibition of the growth of Lcr” value was “only slight inhibition”.
